The record followed here is patent US8309734B2 (Hoffmann-La Roche Inc., priority 2008, dated 2012).

The assay deals with T1, human GPBAR1 receptor (Homo sapiens, UniProt Q8TDU6).
T1 construct: expressed in transfected cells
T1 sequence (Q8TDU6 1-330): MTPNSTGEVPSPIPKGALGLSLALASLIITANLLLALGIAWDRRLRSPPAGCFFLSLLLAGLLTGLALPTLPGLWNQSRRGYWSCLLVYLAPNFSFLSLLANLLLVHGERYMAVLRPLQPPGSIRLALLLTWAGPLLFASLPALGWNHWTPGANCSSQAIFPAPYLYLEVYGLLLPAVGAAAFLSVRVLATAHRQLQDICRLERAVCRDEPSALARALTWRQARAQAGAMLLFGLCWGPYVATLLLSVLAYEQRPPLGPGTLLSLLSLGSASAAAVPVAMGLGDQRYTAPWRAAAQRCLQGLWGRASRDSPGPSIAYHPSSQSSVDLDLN
Put plainly: functional cAMP assay in CHO-dhfr(minus) cells expressing human GPBAR1 receptors. The note with it: cAMP increase (TR-FRET) in CHO-dhfr(minus) cells expressing human GPBAR1; compounds incubated 30 min at 30° C. Format: cell-based. (Changes in cAMP serve as a functional read-out for many G protein-coupled receptors.)
`CC1CCc2ccccc2N1C(=O)c1cc(F)ccc1Oc1cc(Cl)ccc1Cl` (stereo not shown) [Example 114, [2-(2,5-Dichloro-phenoxy)-5-fluoro-phenyl]-(2-methyl-3,4-dihydro-2H-quinolin-1-yl)-methanone]: the midpoint of the response, the EC50, lay at 0.946 µM.
Next, `COC(=O)CCC#Cc1cc(Cl)c(Oc2ncccc2C(=O)N2CCCc3ccccc32)cc1Cl` [Example 166, 5-{2,5-Dichloro-4-[3-(3,4-dihydro-2H-quinoline-1-carbonyl)-pyridin-2-yloxy]-phenyl}-pent-4-ynoic acid methyl ester]: 0.148 µM; `O=C(c1cccnc1Oc1ccc(F)c(Cl)c1)N1CCCc2ncccc21` [Example 78, [2-(3-Chloro-4-fluoro-phenoxy)-pyridin-3-yl]-(3,4-dihydro-2H-[1,5]naphthyridin-1-yl)-methanone]: 0.128 µM.
Next, `O=C(O)c1ccc(C#Cc2cc(Cl)c(Oc3ncccc3C(=O)N3CCN(C4CC4)c4ccccc43)cc2Cl)cc1Cl` [Example 168, 2-Chloro-4-{2,5-dichloro-4-[3-(4-cyclopropyl-3,4-dihydro-2H-quinoxaline-1-carbonyl)-pyridin-2-yloxy]-phenylethynyl}-benzoic acid]: 1.44 µM; `O=C(c1cccnc1Oc1cc(C(F)(F)F)cc(Cl)c1F)N1CCCc2ccccc21` [Example 22, [2-(3-Chloro-2-fluoro-5-trifluoromethyl-phenoxy)-pyridin-3-yl]-(3,4-dihydro-2H-quinolin-1-yl)-methanone]: 0.651 µM.
On to `O=C(c1cccnc1Oc1cc(F)cc(Cl)c1)N1CCCc2ccccc21` [Example 13, [2-(3-Chloro-5-fluoro-phenoxy)-pyridin-3-yl]-(3,4-dihydro-2H-quinolin-1-yl)-methanone], for which the EC50 (in general, the midpoint of the concentration-response curve) was found to be 0.149 µM.
In the case of `O=C(c1cc(F)cnc1Oc1ccc(F)c(Cl)c1)N1CCCc2ccccc21` [Example 86, [2-(3-Chloro-4-fluoro-phenoxy)-5-fluoro-pyridin-3-yl]-(3,4-dihydro-2H-quinolin-1-yl)-methanone] it was 0.096 µM; in that of `CN(C(=O)c1cccnc1Oc1cc(Cl)ccc1Cl)c1cnccc1Cl` [Example 47, N-(4-Chloro-pyridin-3-yl)-2-(2,5-dichloro-phenoxy)-N-methyl-nicotinamide], 1.25 µM; in that of `CN(C(=O)c1cccnc1Oc1cc(Cl)ccc1Cl)c1c(F)cccc1F` [Example 64, 2-(2,5-Dichloro-phenoxy)-N-(2,6-difluoro-phenyl)-N-methyl-nicotinamide], 0.155 µM.
In the case of `Cc1cccc2c1N(C(=O)c1cc(F)cnc1Oc1ccc(F)c(Cl)c1)CCC2` [Example 88, [2-(3-Chloro-4-fluoro-phenoxy)-5-fluoro-pyridin-3-yl]-(8-methyl-3,4-dihydro-2H-quinolin-1-yl)-methanone] it was 0.95 µM; in that of `O=C(c1cccnc1Oc1cccc(I)c1)N1CCCc2ccccc21` [Example 21, (3,4-Dihydro-2H-quinolin-1-yl)-[2-(3-iodo-phenoxy)-pyridin-3-yl]-methanone], 0.345 µM; in that of `Cc1ccnc(Cl)c1N(C)C(=O)c1cccnc1Oc1cc(Cl)ccc1Cl` [Example 69, N-(2-Chloro-4-methyl-pyridin-3-yl)-2-(2,5-dichloro-phenoxy)-N-methyl-nicotinamide], 0.566 µM.
Compound `Cc1ccccc1N(C)C(=O)c1cccnc1Oc1cc(Cl)ccc1Cl` [Example 41, 2-(2,5-Dichloro-phenoxy)-N-methyl-N-o-tolyl-nicotinamide] came in with an EC50 of 0.033 µM.
With `COC(=O)C1CCN(C(=O)c2cc(F)cnc2Oc2cc(Cl)ccc2Cl)c2ccccc21` (stereo not shown) [Example 148, 1-[2-(2,5-Dichloro-phenoxy)-5-fluoro-pyridine-3-carbonyl]-1,2,3,4-tetrahydro-quinoline-4-carboxylic acid methyl ester], the response was half-maximal at 1.96 µM (EC50).
In the case of `COc1ncccc1N(C)C(=O)c1ccncc1Oc1ccc(F)c(Cl)c1` [Example 109, 3-(3-Chloro-4-fluoro-phenoxy)-N-(2-methoxy-pyridin-3-yl)-N-methyl-isonicotinamide], the EC50 came out at 0.562 µM.
In the case of `COC(=O)c1ccc(C(=O)N2CCN(C(=O)c3cc(F)cnc3Oc3cc(Cl)ccc3Cl)c3ccccc32)cc1` [Example 162, 4-{4-[2-(2,5-Dichloro-phenoxy)-5-fluoro-pyridine-3-carbonyl]-3,4-dihydro-2H-quinoxaline-1-carbonyl}-benzoic acid methyl ester] it was 1.16 µM; in that of `CN(C(=O)c1cccnc1Oc1cc(Cl)ccc1Cl)c1ncccc1Cl` [Example 46, N-(3-Chloro-pyridin-2-yl)-2-(2,5-dichloro-phenoxy)-N-methyl-nicotinamide], 0.905 µM.
Next, `CCOC(=O)CCCN1CCN(C(=O)c2cc(F)cnc2Oc2cc(Cl)ccc2Cl)c2ccccc21` [Example 158, 4-{4-[2-(2,5-Dichloro-phenoxy)-5-fluoro-pyridine-3-carbonyl]-3,4-dihydro-2H-quinoxalin-1-yl}-butyric acid ethyl ester]: 0.384 µM.
In the case of `O=C(O)CCNC(=O)CCc1cc(Cl)c(Oc2ncccc2C(=O)N2CCN(C3CC3)c3ccccc32)cc1Cl` [Example 179, 3-(3-{2,5-Dichloro-4-[3-(4-cyclopropyl-3,4-dihydro-2H-quinoxaline-1-carbonyl)-pyridin-2-yloxy]-phenyl}-propionylamino)-propionic acid] it was 0.041 µM; in that of `CN(CC(=O)O)C(=O)CCc1cc(Cl)c(Oc2ncccc2C(=O)N2CCN(C3CC3)c3ccccc32)cc1Cl` [Example 178, [(b 3-{2,5-Dichloro-4-[3-(4-cyclopropyl-3,4-dihydro-2H-quinoxaline-1-carbonyl)-pyridin-2-yloxy]-phenyl}-propionyl)-methyl-amino]-acetic acid], 0.096 µM; in that of `O=C(O)CCCc1cc(Cl)c(Oc2ncccc2C(=O)N2CCN(C3CC3)c3ccccc32)cc1Cl` [Example 176, 4-{2,5-Dichloro-4-[3-(4-cyclopropyl-3,4-dihydro-2H-quinoxaline-1-carbonyl)-pyridin-2-yloxy]-phenyl}-butyric acid], 0.114 µM.
On to `CSc1ccccc1N(C)C(=O)c1cccnc1Oc1cc(Cl)ccc1Cl` [Example 132, 2-(2,5-Dichloro-phenoxy)-N-methyl-N-(2-methylsulfanyl-phenyl)-nicotinamide], for which the response was half-maximal at 0.066 µM (EC50).
Next, `CC(C)CN1CCN(C(=O)c2cccnc2Oc2cc(Cl)ccc2Cl)c2ccccc21` [Example 137, [2-(2,5-Dichloro-phenoxy)-pyridin-3-yl]-(4-isobutyl-3,4-dihydro-2H-quinoxalin-1-yl)-methanone]: 0.201 µM; `COc1cccc2c1N(C(=O)c1cccnc1Oc1cc(Cl)ccc1Cl)CCC2` [Example 70, [2-(2,5-Dichloro-phenoxy)-pyridin-3-yl]-(8-methoxy-3,4-dihydro-2H-quinolin-1-yl)-methanone]: 0.561 µM; `O=C(c1cccnc1Oc1ccc(F)c(Cl)c1)N1CCCc2cc(F)c(F)cc21` [Example 79, [2-(3-Chloro-4-fluoro-phenoxy)-pyridin-3-yl]-(6,7-difluoro-3,4-dihydro-2H-quinolin-1-yl)-methanone]: 0.127 µM.
`O=C(c1cccnc1Oc1cc(Cl)c(Cl)cc1Cl)N1CCCc2ccccc21` [Example 14, (3,4-Dihydro-2H-quinolin-1-yl)-[2-(2,4,5-trichloro-phenoxy)-pyridin-3-yl]-methanone] gave an EC50 of 0.236 µM.
In the case of `Cc1cc(F)c2c(c1)CCCN2C(=O)c1cccnc1Oc1cc(Cl)ccc1Cl` [Example 68, [2-(2,5-Dichloro-phenoxy)-pyridin-3-yl]-(8-fluoro-6-methyl-3,4-dihydro-2H-quinolin-1-yl)-methanone] it was 0.837 µM.
In the case of `O=C1CCCN(C(=O)c2cc(F)cnc2Oc2cc(Cl)ccc2Cl)c2ccccc21` [Example 82, 1-[2-(2,5-Dichloro-phenoxy)-5-fluoro-pyridine-3-carbonyl]-1,2,3,4-tetrahydro-benzo[b]azepin-5-one] it was 1.27 µM; in that of `O=C(c1cccnc1Oc1cc(Cl)ccc1Cl)N1CCNc2ccccc21` [Example 122, [2-(2,5-Dichloro-phenoxy)-pyridin-3-yl]-(3,4-dihydro-2H-quinoxalin-1-yl)-methanone], 0.062 µM; in that of `O=C(c1cccnc1Oc1ccccc1Cl)N1CCCc2ccccc21` [Example 2, [2-(2-Chloro-phenoxy)-pyridin-3-yl]-(3,4-dihydro-2H-quinolin-1-yl)-methanone], 0.989 µM.
In the case of `O=C(c1cccnc1Oc1cc(Cl)c(Br)cc1Cl)N1CCN(C2CC2)c2ccccc21` [Example 163, [2-(4-Bromo-2,5-dichloro-phenoxy)-pyridin-3-yl]-(4-cyclopropyl-3,4-dihydro-2H-quinoxalin-1-yl)-methanone] it was 0.054 µM; in that of `O=C(c1cc(F)ccc1Oc1cc(Cl)ccc1Cl)N1CCOc2ccccc21` [Example 117, [2-(2,5-Dichloro-phenoxy)-5-fluoro-phenyl]-(2,3-dihydro-benzo[1,4]oxazin-4-yl)-methanone], 0.572 µM; in that of `O=C(c1cc(F)cnc1Oc1cc(Cl)ccc1Cl)N1CCN(CCC(F)(F)F)c2ccccc21` [Example 153, [2-(2,5-Dichloro-phenoxy)-5-fluoro-pyridin-3-yl]-[4-(3,3,3-trifluoro-propyl)-3,4-dihydro-2H-quinoxalin-1-yl]-methanone], 0.565 µM.
`O=C(c1ccncc1Oc1ccc(Cl)cc1Cl)N1CCCc2ccc(F)cc21` [Example 96, [3-(2,4-Dichloro-phenoxy)-pyridin-4-yl]-(7-fluoro-3,4-dihydro-2H-quinolin-1-yl)-methanone] showed an EC50 of 0.328 µM.
